Among the data in PubChem BioAssay AID463203 (Broad Institute, 2010) are AC50 values, retold here.

The source made the active and inactive calls.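 How the source made its calls: active means more than half of replicate measurements showing over 20% loss of kinase signal relative to plate controls; inconclusive means some but at most half of replicates over 20% loss; inactive means no replicate over 20% signal loss.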

Sequence of Glycogen synthase kinase-3 alpha (Homo sapiens) (P49840 whole entry, looked up): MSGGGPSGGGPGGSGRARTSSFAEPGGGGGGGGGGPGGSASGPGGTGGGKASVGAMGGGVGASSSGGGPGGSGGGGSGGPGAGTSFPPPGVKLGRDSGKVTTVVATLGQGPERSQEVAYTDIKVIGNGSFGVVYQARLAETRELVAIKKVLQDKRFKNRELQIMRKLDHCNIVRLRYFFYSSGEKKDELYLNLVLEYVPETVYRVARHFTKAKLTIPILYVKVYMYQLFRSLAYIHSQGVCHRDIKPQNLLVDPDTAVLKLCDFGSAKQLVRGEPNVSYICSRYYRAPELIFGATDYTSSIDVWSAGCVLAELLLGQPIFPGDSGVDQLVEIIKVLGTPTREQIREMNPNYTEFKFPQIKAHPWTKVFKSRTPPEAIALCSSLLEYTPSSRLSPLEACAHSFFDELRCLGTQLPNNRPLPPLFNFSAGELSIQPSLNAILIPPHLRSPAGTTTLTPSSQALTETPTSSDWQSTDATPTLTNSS

The assay addresses Glycogen synthase kinase-3 alpha (Homo sapiens) (UniProt P49840). In words: concentration-response blocking of human GSK3A – biochemical, luminescence, cell-free homogeneous, retest, dose response (AID 463203). To be noted: GSK-3 alpha enzyme, ADP-Glo luminescence, 60 min. For orientation: In ADP-Glo the light output rises with the ADP produced.
The AC50 is the concentration at which the activity in the assay is half-maximal. Take `O=C(COc1ccccc1F)NC12CC3CC(CC(C3)C1)C2`: the AC50 is > 30 µM (inactive).

With `C=CCOc1ccc(/C=N/n2cncn2)cc1OC`, the AC50 is > 30 µM (inactive).

As to `c1csc(CNc2ncnc3sccc23)c1`, the AC50 was > 30 µM (inactive).

Regarding `O=C(COC(=O)CCc1ccc(S(=O)(=O)N2CCOCC2)cc1)Nc1ccc(Cl)cn1`, the concentration at half-maximal activity (AC50) is 28.4 µM.

Take `Cc1ccc(S(=O)(=O)N(CC(O)CN2CCCCC2)c2ccccc2)cc1` (stereo unspecified): the AC50 is > 30 µM (inactive).

Consider `Cc1ccc(N=c2oc3cc(O)ccc3cc2C(N)=O)cc1`, for which the AC50 was 2.17 µM.

On to `Cc1ccc2c(c1)Oc1ccc(NC(=O)CCCl)cc1C(=O)N2`, for which the AC50 was > 30 µM (inactive).

Turning to `O=c1c(O[C@@H]2O[C@H](CO)[C@@H](O)[C@H](O)[C@H]2O)c(-c2ccc(O)cc2)oc2cc(O)cc(O)c12`, the AC50 is 30.4 µM.

Regarding `Cc1cccc(C)c1OCC(O)CNC(C)C` (stereo unspecified), the AC50 is > 30 µM (inactive).

Consider `C/C(=N\O)C(=O)NCCCn1ccnc1`, for which the AC50 is > 30 µM (inactive).

Regarding `N#CCCn1cc(/C=N/O)c(-c2ccc(Cl)cc2)n1`, the AC50 is 21 µM.

For the compound `Cc1ccc(C2C3=C(CCCC3=O)Nc3[nH]c(=S)[nH]c(=O)c32)cc1` (stereo unspecified), the AC50 is > 30 µM (inactive).

In the case of `O=C1NC(=O)/C(=C/c2ccc(O)cc2)S1`, the AC50 was 27.2 µM.

For the compound `COC(=O)C1=C(C)N(C)C(=O)/C1=C\c1ccco1`, the AC50 is > 30 µM (inactive).

Turning to `C/C(NCCCn1ccnc1)=C(\C#N)C(N)=O`, the AC50 is 19.2 µM.

As to `Clc1ccc(Nc2nc(NCCN3CCOCC3)nc(N3CCOCC3)n2)cc1`, the AC50 was > 30 µM (inactive).

`Nc1nonc1-n1nnc(C(=O)N/N=C/c2ccc(F)cc2)c1-c1cccs1`: the AC50 is 1.05 µM.

In the case of `Cc1ccc2nc3c(cc2c1)c(NS(=O)(=O)c1ccccc1)nn3CC(C)C`, the AC50 was > 30 µM (inactive).

Take `CCN1C(=O)/C(=C2\SC(=S)N(c3c(C)n(C)n(-c4ccccc4)c3=O)C2=O)c2ccccc21`: the AC50 was > 30 µM (inactive).

On to `COC(=O)c1c(NC(=O)CN2C(=O)NC3(CCc4ccccc4C3)C2=O)sc2c1CCCCC2` (stereo unspecified), for which the AC50 is > 30 µM (inactive).

Consider `COc1ccc(-c2oc3cc(O)c(OC)c(O)c3c(=O)c2OC)cc1`, for which the AC50 was > 30 µM (inactive).

As to `COCCCNc1nc2nonc2nc1NCCSC`, the AC50 was > 30 µM (inactive).

Regarding `NC(=O)N/N=C/c1c(O)ccc2oc3c(c12)CCCC3`, the AC50 is 0.845 µM.

As to `CCOC(=O)c1c(-c2cccc([N+](=O)[O-])c2)csc1N`, the AC50 is 6.81 µM.

Consider `Cc1ccc(C2C(C#N)=C(N)Oc3nc(-c4ccccc4)[nH]c32)o1` (stereo unspecified), for which the AC50 was > 30 µM (inactive).

In the case of `Cc1cc(C(C#N)c2ccccc2)n2ncnc2n1` (stereo unspecified), the AC50 is 3.35 µM.

On to `c1ccc(N2CCN(c3cnc4ccccc4n3)CC2)cc1`, for which the AC50 was > 30 µM (inactive).

Take `COc1ccc(-c2noc(CSc3nc(N)c(-c4ccccc4)c(=O)[nH]3)n2)cc1`: the AC50 is > 30 µM (inactive).

On to `COc1ccc(C(CNc2ccc(S(=O)(=O)N3CCCC3)cc2[N+](=O)[O-])N2CCCC2)cc1` (stereo unspecified), for which the AC50 was > 30 µM (inactive).

Regarding `CC(=O)O[C@@H]1[C@@H](O)[C@@H](O)[C@H](Oc2c(-c3ccc(O)cc3)oc3c(CC=C(C)C)c(O)cc(O)c3c2=O)O[C@H]1C`, the AC50 is 14.4 µM.

Take `O=C(Nc1cccc(-c2nc3cccnc3s2)c1)c1cccnc1Cl`: the AC50 was 8.59 µM.

For `O=C(CSc1nc2ccccc2o1)Nc1nc2ccc(Br)cc2s1`, the AC50 was > 30 µM (inactive).

For `Cc1csc(NC(=O)C2CC(=O)N(c3ccc4c(c3)OCCO4)C2)n1` (stereo unspecified), the AC50 was > 30 µM (inactive).

Take `N#CCSc1nnc(-c2ccc3c(c2)OCO3)o1`: the AC50 is 18.1 µM.

For `COc1cccc(/C=N/NC(=O)c2nnn(-c3nonc3N)c2-c2cccs2)c1`, the AC50 was 0.899 µM.

Regarding `C=CCn1cnc2c(c1=O)c1nc3ccccc3nc1n2/N=C/c1cc(OC)c(OC)c(OC)c1`, the AC50 was > 30 µM (inactive).
